# Data published in US11091512B2, “Modulation of antigen immunogenicity by deleting epitopes recognized by NKT cells” (Imnate Sarl, priority 2010, dated 2021).
# Positions count from the first letter of the chain named. Names and notes keep the numbering of the source. “Also recorded” adds a separate entry of the source.
# B1: Der p 1: cysteine protease, main allergen of house dust mite D. pteronyssinus, natural sequence (protein, listed as Dermatophagoides pteronyssinus)
# chain: ETNACSINGNAPAEIDLRQMRTVTPIRMQGGCGSCWAFSGVAATESAYLAYRNQSLDLAEQELVDCASQHGCHGDTIPRGIEYIQHNGVVQESYYRYVAREQSCRRPNAQRFGISNYCQIYPPNVNKIREALAQTHSAIAVIIGIKDLDAFRHYDGRTIIQRDNGYQPNYHAVNIVGYSNAQGVDYWIVRNSWDTNWGDNGYGYFAANIDLMMIEEYPYVVIL
# B2: SEQ ID16: mature Der p 1 with P1 anchoring residues F38S, H135S and Y216S mutated (protein, listed as Dermatophagoides pteronyssinus)
# chain: B1 chain with F38S, H136S, Y217S
# B3: SEQ ID11: alpha-gliadin polypeptide, natural sequence with CD1d binding motif (protein, listed as Homo sapiens)
# chain: MVRVPVPQLQPQNPSQQQPQEQVPLVQQQQFPGQQQPFPPQQPYPQPQPFPSQQPYLQLQPFPQPQLPYPQPQLPYPQPQLPYPQPQPFRPQQPYPQSQPQYSQPQQPISQQQQQQQQQQQQKQQQQQQQQILQQILQQQLIPCRDVVLQQHSIAYGSSQVLQQSTYQLVQQLCCQQLWQIPEQSRCQAIHNVVHAIILHQQQQQQQQQQQQPLSQVSFQQPQQQYPSGQGSFQPSQQNPQAQGSVQPQQLPQFEEIRNLALETLPAMCNVYIPPYCTIAPVGIFGTNYR
# B4: SEQ ID12: mutated form of alpha-gliadin in which the F residue of the motif was substituted by S (protein, listed as Homo sapiens)
# chain: B3 chain with Y56S, Y167S, H191S, F254S, Y276S
# How the values were obtained:
# NKT cells [1] = experiment: CD1d tetramers loaded with FVIII peptides incubated with spleen CD4+ T cells of FVIII-immunized hemophilia A mice, Facs; format: cell-based; conditions: for binding of CD1d tetramers loaded with peptide: spleen CD4+ T cells of hemophilia A mice injected IV with FVIII 2 IU on 4 occasions, 15 aminoacid long peptides
# Description: To determine whether these sequences could activate NKT cells in vivo, FVIII (2 IU) was injected intravenously to hemophilia A mice on 4 occasions separated by a 1-week interval. Hemophilia A mice produce no FVIII due to a stop codon introduced in the FVIII gene in exon 16.
# Mice were sacrificed 10 days after the last injection, the spleen was removed and CD4+ T cells were prepared by magnetic bead sorting. NKT cells are characterized by expression of CD4 and recognition of antigen presented by CD1d molecule. A tetramer of CD1d was obtained from a commercial supplier and loaded with 15 aminoacid long FVIII peptides, which included peptides containing SEQ ID1, SEQ ID2 and SEQ ID3.
# Hemophilia A mice were immunized with 2 IU Factor VIII on 4 occasions separated by one week. The spleen was then removed and CD4+ T cells were prepared by magnetic bead sorting. A fluorochrome-labeled tetramer of CD1d was obtained from a commercial supplier and loaded with 15 aminoacid long FVIII peptides, which included peptides containing SEQ ID1, ID2 and ID3. Loading was carried out at room temperature overnight in the dark.
# Tetramers were then incubated for 30 minutes at 4° C. with the CD4+ T cell population and the cell suspension was analyzed by Facs.
# hemophilia A mice = experiment: direct immunization of hemophilia A mice with peptides containing a CD1d motif; format: in vivo; conditions: direct immunization with peptide
# Description: Hemophilia A mice were immunized 3 times subcutaneously with 50 μg of an equimolar mixture of peptides of SEQ ID1 (44pept) and peptide of SEQ ID2 (256pept) adsorbed on aluminum hydroxyde. A control group received physiological serum instead of peptides. Plasma was taken 10 days after the last immunization and assessed for the presence of anti-Factor VIII antibodies, using a direct binding assay. Briefly, Factor VIII (10 IU/ml) was insolubilized on polystyrene plates, which were washed and incubated with a 1/10 dilution of plasma. After a further washing, a HRP-labeled goat anti-mouse antiserum was added, followed by an enzyme substrate. Colour development was read as OD.
# NKT cells [2] = experiment: activation of NKT cells in vitro by human dendritic cells loaded with peptide or polypeptide; format: cell-based
# Description: (§1) Synthetic peptides corresponding to SEQ ID9 and SEQ ID10 were produced. Their capacity to activate NKT cells was determined in vitro using human dendritic cells derived from peripheral blood monocytes of an individual sensitized to Mal d 1. Dendritic cells loaded with each one of the two peptides were incubated in the presence of NKT cells obtained from the same individual by sorting peripheral lymphocytes using specific markers such as CD4 and NKG2D.
# (§2) As for Mal d 1, human CD1d tetramers loaded with a synthetic peptide representing the motif identified in the polypeptide of […]
# NKT cells [3] = experiment: human CD1d tetramers loaded with peptides, recognition by NKT cells; format: cell-based; conditions: Mal d 1 peptides
# Description: as §1, §2
# NKT cells [4] = experiment: human CD1d tetramers loaded with IgG peptides, peripheral blood CD4+ T cells of patients given a therapeutic antibody (facs); format: cell-based; conditions: patients injected with a therapeutic antibody during the previous 5 days
# Description: Synthetic peptides corresponding to SEQ ID18, SEQ ID19 and SEQ ID20 were produced and used to load human CD1d tetramers as for the examples above (see for instance example 4 for allergen Der p 1). Peripheral blood cells were obtained by venous puncture of patients who had received an injection of a therapeutic antibody during the previous 5 days. CD4+ T cells were purified by magnetic bead sorting. The cells were then incubated with tetramers loaded with peptides of SEQ ID18, SEQ ID19 or SEQ ID20. Analysis by facs identifies a significant proportion of NKT cells (±10%) labeled by tetramers.
# CD4+ NKT cells = experiment: intranasal Der p 1 in BALB/c mice, spleen CD4+ T cells stained with peptide-loaded CD1d tetramers (facs); format: in vivo; conditions: for percentage of CD4+ T cells stained with CD1d tetramers loaded with peptide: mice given natural sequence Der p 1 intranasally, 100 μg
# Description: Peptides of SEQ ID13, SEQ ID14 and SEQ ID15 were synthesized and used to load CD1d tetramers.
# BALB/c mice were submitted to intranasal administration of Der p 1, using 50 μl of saline containing 100 μg of Der p 1. This challenge procedure was repeated twice on three consecutive days at one-week interval. The mice were sacrificed 5 days after the last nasal instillation and the spleen was removed. CD4+ T cells were purified by magnetic bead sorting and incubated in the presence of the CD1d tetramers loaded with peptides of SEQ ID13, SEQ ID14 or SEQ ID15. By fluorescence-activated cell sorter (facs) determination, it was observed that a significant percentage of cells (±10%) were stained with the tetramers, identifying them as CD4+ NKT cells. It was therefore concluded that peptides of SEQ ID13, SEQ ID14 and SEQ ID15 were functional in binding to CD1d and in being recognized by NKT cells.
# Next, a mutated form of Der p 1 was prepared by genetic engineering, in which the 3 aminoacid residues predicted to be in position P1 for CD binding of peptides of SEQ ID13, SEQ ID14 and SEQ ID15 were substituted by serine. The mutated Der p 1 (SEQ ID16) was used for nasal instillation as described above with Der p 1 in natural sequence (SEQ ID17).
# NKT cells [5] = experiment: JAWS2 cells loaded with Der p 1, production of IFN-gamma and IL-4 as markers of NKT activation; format: cell-based; conditions: JAWS2 cells loaded with the protein; cells from mice immunized with natural sequence Der p 1
# Description: CD4+ T cells obtained from the above experiments were incubated in culture medium in the presence of an antigen-presenting cell which expresses the CD1d molecule. […] JAWS2 cells were loaded with Der p 1 and presentation of Der p 1-derived epitopes by CD1d was evaluated by measuring the production of cytokines such as IFN-gamma and IL-4 as markers of NKT activation.
# Further, mutated Der p 1 (SEQ ID16) was used to load JAWS2 cells and tested for its capacity to activate NKT cells. For this experiment, NKT cells were used as obtained from mice immunized with Der p 1 in either natural or mutated configuration. The production of IFN-gamma and IL-4 was taken as an indication of NKT activation.
# [6] = dendritic cells and NKT cells of an individual sensitized to Mal d 1
# [7] = alpha-gliadin polypeptide presented by antigen-presenting dendritic cells, same procedure as for Mal d 1
molecule,measurement,setting,value
"FCHISSH (listed as Homo sapiens) [SEQ ID1, FVIII A1 domain aminoacids 309-315 CD1d motif; tested as 15 aminoacid long FVIII peptide containing it]",% of NKT cells recognizing peptide-loaded CD1d tetramers,"NKT cells [1]; FIG. 1, CD4+ T cells of hemophilia A mice immunized with Factor VIII",Up to 45%
same,binding of CD1d tetramers loaded with peptide,NKT cells [1],Significant binding
same,activation of NKT cells,hemophilia A mice,sufficient as to elicit the activation of NKT cells; also recorded: Prominent activation
"FHAINGY [SEQ ID3, FVIII A3 domain aminoacids 1918-1924 CD1d motif; tested as 15 aminoacid long FVIII peptide containing it]",binding of CD1d tetramers loaded with peptide,NKT cells [1],Significant binding
same,activation of NKT cells,hemophilia A mice,sufficient as to elicit the activation of NKT cells
"FKLIESY (listed as Malus domestica) [SEQ ID9, synthetic peptide, aminoacids 144-150 of Mal d 1]",activation of NKT cells,NKT cells [2]; [6],activated a significant proportion of NKT cells
same,recognition of peptide-loaded human CD1d tetramers by NKT cells,NKT cells [3],recognized by a significant proportion of NKT cells
"FRVVSVL (listed as Homo sapiens) [SEQ ID19, CH2 of IgG2 and IgG3]",proportion of NKT cells labeled by tetramers,NKT cells [4],~10%
"FSGVAAT (listed as Dermatophagoides pteronyssinus) [SEQ ID13, aminoacids 38-44 of Der p 1]",percentage of CD4+ T cells stained with CD1d tetramers loaded with peptide,CD4+ NKT cells,~10%
"FWKVQHH (listed as Homo sapiens) [SEQ ID2, FVIII A3 domain aminoacids 1816-1822 CD1d motif; tested as 15 aminoacid long FVIII peptide containing it]",binding of CD1d tetramers loaded with peptide,NKT cells [1],Significant binding
same,activation of NKT cells,hemophilia A mice,sufficient as to elicit the activation of NKT cells
"HEALHNH (listed as Homo sapiens) [SEQ ID20, CH3 loop of IgG1, IgG2 and IgG4]",proportion of NKT cells labeled by tetramers,NKT cells [4],~10%
"HSAIAAVI (listed as Dermatophagoides pteronyssinus) [SEQ ID14, aminoacids 135-141 of Der p 1]",percentage of CD4+ T cells stained with CD1d tetramers loaded with peptide,CD4+ NKT cells,~10%
"SKLIESS (listed as Malus domestica) [SEQ ID10, synthetic peptide of Mal d 1 motif with F144S and Y150S mutations]",activation of NKT cells,NKT cells [2]; [6],did not
same,proportion of NKT cells recognizing peptide-loaded human CD1d tetramers,NKT cells [3],less than 1%
"YPYVVIL (listed as Dermatophagoides pteronyssinus) [SEQ ID15, aminoacids 216-222 of Der p 1]",percentage of CD4+ T cells stained with CD1d tetramers loaded with peptide,CD4+ NKT cells,~10%
"YRVVSVL (listed as Homo sapiens) [SEQ ID18, CH2 of IgG1 and IgG4]",proportion of NKT cells labeled by tetramers,NKT cells [4],~10%
B1,NKT activation (production of IFN-gamma and IL-4),NKT cells [5],significant production of cytokines
B2,"binding of CD4+ T cell splenocytes to tetramers loaded with peptide of SEQ ID13, SEQ ID14 or SEQ ID15",CD4+ NKT cells; mice given the protein by nasal instillation,no significant binding
same,NKT activation (production of IFN-gamma and IL-4),NKT cells [5],failed to be activated
B3,activation of NKT cells,NKT cells [2]; [7],activated a significant proportion of NKT cells
B4,activation of NKT cells,NKT cells [2]; [7],failed to do so
